Data: patent publication US20220110933A1, “METHODS OF TREATING DISEASE WITH MAGL INHIBITORS” (H. Lundbeck A/S, priority 2019, published 2022)

How the values were obtained:
[1] = test system: L-DOPA induced dyskinesia in MPTP-lesioned cynomolgus macaques; assay: MPTP-lesioned macaque model of L-DOPA induced dyskinesia (LID); assay type: in vivo, cynomolgus macaque; details: for reduction in median peak-dose dyskinesia after L-DOPA administration: single dose 2 h before L-DOPA, 0-2 h post L-DOPA
Procedure: The study utilized 8 female MPTP-lesioned cynomolgus macaques (10-15 years in age) that have received chronic repeat-treatment with L-DOPA and manifest stable and reproducible dyskinesia, of choreic and dystonic nature, in response to subsequent L-DOPA treatments.
A MGLL inhibitor, Compound 21, (3, 10 and 30 mg/kg), reference drug amantadine (10 mg/kg) and vehicle were administered by oral gavage as a single dose 2 h before a high-dose of L-DOPA (administered as Madopar™). The L-DOPA dose individualized for each animal is one that induced robust and reproducible anti-parkinsonian effects lasting ˜3-4 h but compromised by disabling dyskinesia. The animals were video-recorded for a 6 h period following L-DOPA administration and the effects of each treatment on dyskinesia, parkinsonian disability, duration and quality of anti-parkinsonian benefit (on-time) were scored blinded by a neurologist. Dyskinesia was scored using the non-human primate dyskinesia rating scale (NHPDysRS) and disability was scored using the monkey parkinsonian disability rating scale (mPDRS).
The study design was an ascending dose crossover with all animals receiving each treatment in the order of vehicle, 10 mg/kg amantadine, 3 mg/kg Compound 21, 10 mg/kg Compound 21, and 30 mg/kg Compound 21.

[2] = Plasma exposure and half-life in MPTP-lesioned macaques; assay type: in vivo, cynomolgus macaque; details: cynomolgus monkey

Row | half-life ([2]; in vivo) [h] | SMILES | dyskinesia in the 1-2 h post L-DOPA interval ([1]; 10 mg/kg p.o.) | reduction in median peak-dose dyskinesia after L-DOPA administration ([1]; 10 mg/kg p.o.) [%] | reduction in median peak-dose dyskinesia after L-DOPA administration ([1]; 30 mg/kg p.o.) [%] | statistical significance of reduction in 0-2 hour total dyskinesia scores ([1]; 3, 10 and 30 mg/kg p.o.) | median peak dose dyskinesia induced by L-DOPA administration ([1]; 3, 10 and 30 mg/kg p.o., 0-2 h post L-DOPA totals) | anti-dyskinetic effects (overall) ([1]; MPTP-lesioned macaque model of L-DOPA induced dyskinesia) | benefit on dystonia and chorea ([1]; data not shown) | therapeutic effects on median dyskinesia ratings compared with amantadine ([1]; versus amantadine 10 mg/kg) | parkinsonian disability ([1]; 10 mg/kg p.o., 0-2 h post L-DOPA administration totals, P<0.05) | concentration at 2 h ([2]; plasma, oral, 10 mg/kg p.o., 2 h post-dose) [ng/mL] | concentration at 8 h ([2]; plasma, oral, 10 mg/kg p.o., 8 h post-dose) [ng/mL]
1 | 16 to 34 | O=C(OC(C(F)(F)F)C(F)(F)F)N1CCN(Cc2ccc(Cl)cc2N2CC3CCC(C2)O3)CC1 [Compound 21, 1,1,1,3,3,3-Hexafluoropropan-2-yl 4-(2-(8-oxa-3-azabicyclo[3.2.1]octan-3-yl)-4-chlorobenzyl)piperazine-1-carboxylate] | significant reduction | 45 | 35 | did not reach statistical significance | dose-dependently reduced | robust anti-dyskinetic effects | evidence of benefit on both dystonia and chorea | of greater magnitude |  |  | 
2 |  | NC12CC3CC(CC(C3)C1)C2 [Amantadine, amantadine, reference compound] |  | 29 |  |  |  |  |  |  | mild and statistically significant worsening | 1300 | 1500
